Data as given in PMC8920929 (The Journal of Biological Chemistry, 2022).
Positions count from the first letter of the chain named.

How the values were obtained:
Format in all cases: cell-based
TRPV3-I505A = molecular target: T1, TRPV3-I505A (Homo sapiens, UniProt Q8NET8, I505A); assay: Whole-cell and single-channel recordings of the TRPV3-I505A mutant
T1 sequence (Q8NET8 1-790 I505A): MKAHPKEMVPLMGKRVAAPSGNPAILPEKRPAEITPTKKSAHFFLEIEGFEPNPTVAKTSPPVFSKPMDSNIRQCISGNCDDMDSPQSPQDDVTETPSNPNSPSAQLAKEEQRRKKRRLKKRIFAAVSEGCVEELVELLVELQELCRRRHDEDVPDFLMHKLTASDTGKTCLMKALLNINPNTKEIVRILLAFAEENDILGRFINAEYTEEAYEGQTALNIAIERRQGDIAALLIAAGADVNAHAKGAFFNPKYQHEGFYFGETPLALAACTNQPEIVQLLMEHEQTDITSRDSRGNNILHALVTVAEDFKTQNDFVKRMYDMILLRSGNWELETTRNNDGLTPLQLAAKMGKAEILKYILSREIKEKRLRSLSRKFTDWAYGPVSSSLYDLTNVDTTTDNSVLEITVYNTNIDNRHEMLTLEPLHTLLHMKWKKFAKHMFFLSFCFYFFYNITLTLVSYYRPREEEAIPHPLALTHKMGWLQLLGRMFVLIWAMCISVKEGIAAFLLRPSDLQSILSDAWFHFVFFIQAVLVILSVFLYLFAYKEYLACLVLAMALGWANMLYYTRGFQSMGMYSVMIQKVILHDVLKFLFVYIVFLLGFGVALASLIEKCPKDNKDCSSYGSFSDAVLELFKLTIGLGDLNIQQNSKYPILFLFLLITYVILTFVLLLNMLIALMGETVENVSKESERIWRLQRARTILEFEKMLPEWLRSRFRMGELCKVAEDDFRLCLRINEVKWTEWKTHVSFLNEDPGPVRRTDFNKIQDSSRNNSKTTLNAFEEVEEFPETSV

TRPV3-R509A = molecular target: T2, TRPV3-R509A (Homo sapiens, UniProt Q8NET8, R509A); assay: Whole-cell and single-channel recordings of the TRPV3-R509A mutant
T2 sequence (Q8NET8 1-790 R509A): T1 sequence (Q8NET8 1-790 I505A) with A505I, R509A

TRPV3-L508V = molecular target: T3, TRPV3-L508V (Homo sapiens, UniProt Q8NET8, L508V); assay: Whole-cell and single-channel recordings of the TRPV3-L508V mutant; details: carvacrol 0.3-3 mM
T3 sequence (Q8NET8 1-790 L508V): T1 sequence (Q8NET8 1-790 I505A) with A505I, L508V

`Cc1ccc(C(C)C)cc1O` [carvacrol, 5-Isopropyl-2-methylphenol] was tested, and the EC50 (TRPV3-I505A) was 3.51 ± 0.44 mM, the “right shift of channel activation versus WT TRPV3” value (TRPV3-I505A; I505A versus WT) was “over 10 fold” and the “activation of TRPV3 I505A mutant channel” value (TRPV3-I505A; carvacrol 0.3-3.0 mM or 50 μM 2-APB) was “weak activation of TRPV3 I505A at high concentration of 3 mM”. The EC50 (TRPV3-R509A) was 2.93 ± 0.11 mM, the “right shift of channel activation versus WT TRPV3” value (TRPV3-R509A; R509A versus WT) was “over 10 fold” and the “sensitivity of TRPV3 R509A mutant channel” value (TRPV3-R509A; macroscopic and single-channel current levels) was “decreased the channel sensitivity”. The “activation of TRPV3 L508V mutant channel” value (TRPV3-L508V) was “retain the channel activation”.
